From patent publication US20060265770A1, “Transgenic mice containing glutamate receptor (GRIK5) gene disruptions” (priority 2000, published 2006)

System: F2N1 Male Mice
Assay: Metrazol Test (seizure susceptibility, tail vein infusion)
Assay type: in vivo, mouse
Conditions: for dose at death, Average ± Stdev / dose at first twitch, Average ± Stdev / dose at tonic extension, Average ± Stdev / dose at tonic/clonic seizure, Average ± Stdev: 5 mg/mL Metrazol infused through tail vein at 0.375 mL/min
Protocol: A metrazol administration test can be used to screen animals for varying susceptibilities to seizures or similar events. For example, a 5 mg/ml solution of metrazol can be infused through the tail vein of a mouse at a rate of, e.g., approximately 0.375 ml/min. The infusion will cause all mice to experience seizures, followed by death. Those mice that enter the seizure stage the soonest are believed to be more prone to seizures.
To screen for phenotypes involving changes in seizure susceptibility, the Metrazol Test was used. A 5 mg/mL solution of Metrazol was infused through the tail vein of the mouse at a constant rate of 0.375 mL/min. The infusion causes all mice to experience seizures. Those mice who enter the seizure stage the quickest are thought to be more prone to seizures in general.
To screen for phenotypes involving epilepsy, the Metrazol was used. Seven to ten adult wild-type and homozygote males were used. A fresh solution of 5 mg/ml pentylenetetrazole in 0.9% NaCl was prepared prior to testing. Mice were weighed and loosely held in a restrainer. After exposure to a heat lamp to dilate the tail vein, mice were continuously infused with the pentylenetetrazole solution using a syringe pump set at a constant flow rate. The following stages were recorded: first twitch (sometimes accompanied by a squeak), beginning of the tonic/clonic seizure, tonic extension and survival time. The dose required for each phase is determined and the latency to each phase was determined between genotypes. Alterations in any stage may indicate an overall imbalance in excitatory or inhibitory neurotransmitter levels. When compared to age- and gender-matched wild-type (+/+) control mice, homozygous mutant (−/−) mice required a lower dose of metrazol to induce a tonic/clonic seizure (FIG. 5 and Table 1), indicating an increased susceptibility to seizure.

[1] = GRIK5 homozygous mutant (−/−) F2N1 male mice

## C1CCc2nnnn2CC1 [Metrazol, pentylenetetrazole]
[1]
  dose at death, Average ± Stdev: 136.12 ± 27.18 mg/kg
  dose at first twitch, Average ± Stdev: 26.38 ± 2.59 mg/kg
  dose at tonic extension, Average ± Stdev: 115.34 ± 28.63 mg/kg
  dose at tonic/clonic seizure, Average ± Stdev: 34.02 ± 6.24 mg/kg
Homozygous mutant (−/−) mice compared to age- and gender-matched wild-type (+/+) control mice
  dose of metrazol to induce a tonic/clonic seizure, in words: lower dose
wild-type (+/+) F2N1 male mice
  dose at death, Average ± Stdev: 134.29 ± 31.19 mg/kg
  dose at first twitch, Average ± Stdev: 29.73 ± 3.85 mg/kg
  dose at tonic extension, Average ± Stdev: 112.07 ± 29.70 mg/kg
  dose at tonic/clonic seizure, Average ± Stdev: 44.59 ± 9.74 mg/kg
